Assay results from US20140357512A1, “HISTONE DEACETYLASE (HDAC) BIOMARKERS IN MULTIPLE MYELOMA” (priority 2013, published 2014).

System: human myeloma cell line MM.1S
Assay: SILAC acetylated-lysine peptide profiling, HDAC inhibitor vs DMSO (light/heavy ratio)
Format: cell-based
From the text: An embodiment of the invention comprises utilizing the SILAC method in order to quantitate changes in protein expression between two or more populations of cells. The SILAC method is a technique based on mass spectrometry that detects differences in protein abundance among samples using non-radioactive isotopic labeling. The SILAC method is known in the art, and described in detail in Ong et al., “Stable Isotope Labeling by Amino Acids in Cell Culture, SILAC, as a Simple and Accurate Approach to Expression Proteomics”, Molecular & Cellular Proteomics, vol. 1, pp. 376-386 (2002), which is incorporated herein by reference in its entirety.
Briefly, the SILAC method involves growing two populations of cells in cell culture. The first population of cells is grown in growth media containing normal amino acids (“normal media”). The second population of cells is grown in media lacking a standard essential amino acid (such as lysine), but is then supplemented with a non-radioactive, isotopically labeled form of that essential amino acid (such as lysine labeled with ^13C atoms, rather than normal ^12C atoms), which is called “heavy media”. When the two populations of cells are each growing in the medium, they incorporate the amino acids into all of their proteins. The growth of cells maintained in the heavy media is no different from that in normal media. All peptides containing the heavy amino acids are heavier than their normal counterparts. The cells from each of the two populations of cells are lysed. The lysates from each of the two cell populations are then combined. The combined cell lysates are then analyzed by mass spectrometry. Pairs of chemically identical peptides of different stable isotope composition can be differentiated in a mass spectrometer due to their difference in mass. The ratio of peak intensities in the mass spectrum for such peptide pairs reflects the abundance ratio for the two proteins.
This example describes SILAC studies that were performed to compare the effects of three different HDAC inhibitors (Compound A, Compound B, and tubastatin A) to a control on a human multiple myeloma cell line. The HDAC inhibitors were also compared amongst themselves to determine differences in their effects.
A human myeloma cell line MM.1S was grown using either ^12C (light) or ^13C (heavy) lysine containing culture medium. The “heavy” cells were treated with DMSO as the control, and the “light” cells were treated with a single HDAC inhibitor at 37° C. for 6 hours. The heavy and light cells were lysed, and the lysates were mixed in 1:1 ratio and digested with the protease trypsin. The acetylated lysine containing peptides (due to the action of the HDAC inhibitor) in the digested peptide pool were captured by a non-specific anti-acetylated lysine antibody cocktail (the antibodies identify both light and heavy acetylated peptides), and subjected to mass spectrometry analysis in order to identify thousands of individual peptides.
Thousands of peptides were identified in pairs (^12C and ^13C) due to their known mass differences. The amino acid sequence and quantitative ratio (Light/Heavy) of a given peptide in two differentially treated cell lysates were then determined and annotated with their possible protein (gene) sources.
As stated above, three HDAC inhibitors (Compound A, Compound B, and Tubastatin A) were used. Thus, the SILAC method was performed three times, with a different HDAC inhibitor compared to a control each time. Accordingly, there are three pairs of quantitative data in the table below, i.e., Compound A:DMSO, Compound B:DMSO, and Tubastatin A:DMSO. A cut-off of 1.30 fold of change (increase or decrease) was then used to determine “changed” or “+” in the table, and any peptides with a fold of change less than 1.3 fold were determined to be “unchanged” or “0” in the table. Those peptides that were not identified were marked as “NA” in the table. […]

## O=C(CCCCCCNC(=O)c1cnc(N(c2ccccc2)c2ccccc2)nc1)NO [Compound A, 2-(diphenylamino)-N-(7-(hydroxyamino)-7-oxoheptyl)pyrimidine-5-carboxamide]
60S ribosomal protein L35a [15], RPL35A, drug:DMSO
  light to heavy ratio (L/H ratio) of acetylated peptide AIFAGYK(ac)R (SEQ ID NO: 300): 0.86 log 2
60S ribosomal protein L37a [36], RPL37A, drug:DMSO
  light to heavy ratio (L/H ratio) of acetylated peptide KIEISQHAK(ac)YTCSFCGK (SEQ ID NO: 351): 0.00 log 2
60 kDa heat shock protein mitochondrial [87], gene HSPD1, inhibitor:DMSO
  light to heavy ratio (L/H ratio) of acetylated peptide SIDLK(ac)DK (SEQ ID NO: 572): 0.42 log 2
78 kDa glucose-regulated protein [268], HSPA5, drug:DMSO
  light to heavy ratio (L/H ratio) of acetylated peptide VMEHFIK(ac)LYK (SEQ ID NO: 276): 0.54 log 2
78 kDa glucose-regulated protein [326], HSPA5, drug:DMSO
  light to heavy ratio (L/H ratio) of acetylated peptide AK(ac)[…] (SEQ ID NO: 266): 0.44 log 2
116 kDa U5 small nuclear ribonucleoprotein component [790], EFTUD2, drug:DMSO
  light to heavy ratio (L/H ratio) of acetylated peptide FK(ac)[…] (SEQ ID NO: 333): 0.00 log 2
ACADVL [428], log 2 scale, drug vs DMSO
  L/H ratio of acetylated peptide […](ac)LAR (SEQ ID NO: 19): 0.00
ACTN1 [398], log 2 scale, drug vs DMSO
  L/H ratio of acetylated peptide LDHLAEK(ac)FR (SEQ ID NO: 20): 0.00
ADP-ribosylation factor-like protein 6-interacting protein 1 [96], ARL6IP1, drug:DMSO
  light to heavy ratio (L/H ratio) of acetylated peptide IFGSNK(ac)WTTEQQQR (SEQ ID NO: 306): 1.00 log 2
ADP-ribosylation factor-like protein 11 [31], gene ARL11, inhibitor:DMSO
  light to heavy ratio (L/H ratio) of acetylated peptide TTLLYK(ac)LK (SEQ ID NO: 624): 0.49 log 2
ADP/ATP translocase 1 [166], SLC25A4, drug:DMSO
  light to heavy ratio (L/H ratio) of acetylated peptide IFK(ac)SDGLR (SEQ ID NO: 280): 0.56 log 2
ADP/ATP translocase 3 [166], gene SLC25A6, inhibitor:DMSO
  light to heavy ratio (L/H ratio) of acetylated peptide ITK(ac)SDGIR (SEQ ID NO: 587): 0.44 log 2
AK(ac)HDELTYF (SEQ ID NO: 497), Cystatin-B [91], CSTB
  L/H ratio of acetylated peptide: −0.88 log 2
ALDLNLK(ac)HQILPK (SEQ ID NO: 248), Cytochrome b-c1 complex subunit 7 [72], UQCRB
  light to heavy ratio (L/H ratio) of acetylated peptide, log 2 scale: −0.50
ANP32B [101], log 2 scale, drug vs DMSO
  L/H ratio of acetylated peptide LK(ac)[…] (SEQ ID NO: 21): 0.00
ANXA6 [63], log 2 scale, drug vs DMSO
  L/H ratio of acetylated peptide […](ac)SLYGK (SEQ ID NO: 22): 0.00
ATAD3A [491], log 2 scale, drug vs DMSO
  L/H ratio of acetylated peptide MYFDK(ac)[…] (SEQ ID NO: 23): 0.00
ATP5H [117], log 2 scale, drug vs DMSO
  L/H ratio of acetylated peptide IVEYEK(ac)EMEK (SEQ ID NO: 24): 0.00
ATP5J2 [54], log 2 scale, drug vs DMSO
  L/H ratio of acetylated peptide YYNK(ac)YINVK (SEQ ID NO: 12): 0.54
ATP synthase subunit O mitochondrial [54], ATP50, drug:DMSO
  light to heavy ratio (L/H ratio) of acetylated peptide QNK(ac)LEQVEK (SEQ ID NO: 271): 0.46 log 2
ATP synthase subunit alpha mitochondrial [261], gene ATP5A1, inhibitor:DMSO
  light to heavy ratio (L/H ratio) of acetylated peptide STVAQLVK(ac)R (SEQ ID NO: 552): 0.39 log 2
ATP synthase subunit alpha mitochondrial [539], gene ATP5A1, inhibitor:DMSO
  light to heavy ratio (L/H ratio) of acetylated peptide ISEQSDAK(ac)LK (SEQ ID NO: 600): 0.46 log 2
ATP synthase subunit b mitochondrial [233], ATP5F1, drug:DMSO
  light to heavy ratio (L/H ratio) of acetylated peptide […](ac)ETIAK (SEQ ID NO: 307): 1.00 log 2
ATP synthase subunit beta mitochondrial [485], gene ATP5B, inhibitor:DMSO
  light to heavy ratio (L/H ratio) of acetylated peptide LVPLK(ac)ETIK (SEQ ID NO: 507): −0.64 log 2
ATP synthase subunit g mitochondrial [66], ATP5L, drug:DMSO
  light to heavy ratio (L/H ratio) of acetylated peptide […](ac)QLTVK (SEQ ID NO: 279): 0.56 log 2
ATP synthase-coupling factor 6 mitochondrial [99], ATP5J, drug:DMSO
  light to heavy ratio (L/H ratio) of acetylated peptide FEDPK(ac)FEVIEKPQA (SEQ ID NO: 325): 0.00 log 2
ATP-dependent RNA helicase DDX18 [584], gene DDX18, inhibitor:DMSO
  light to heavy ratio (L/H ratio) of acetylated peptide SAQEAYK(ac)SYIR (SEQ ID NO: 502): −0.74 log 2
Actin aortic smooth muscle [317], gene ACTA2, inhibitor:DMSO
  light to heavy ratio (L/H ratio) of acetylated peptide MQK(ac)[…] (SEQ ID NO: 526): −0.44 log 2
Acyl-CoA dehydrogenase family member 9 mitochondrial [41], gene ACAD9, inhibitor:DMSO
  light to heavy ratio (L/H ratio) of acetylated peptide AFAK(ac)ELFLGK (SEQ ID NO: 627): 0.49 log 2
Alpha-soluble NSF attachment protein [203], NAPA, drug:DMSO
  light to heavy ratio (L/H ratio) of acetylated peptide YSAK(ac)DYFFK (SEQ ID NO: 319): 1.00 log 2
Annexin A5 [76], gene ANXA5, drug:DMSO
  light to heavy ratio (L/H ratio), log 2 scale, acetylated peptide SELTGK(ac)FEK (SEQ ID NO: 778): 1.00
Annexin A6 [9], ANXA6, drug:DMSO
  light to heavy ratio (L/H ratio) of acetylated peptide PAQGAK(ac)YR (SEQ ID NO: 305): 1.00 log 2
Annexin A6 [299], ANXA6, drug:DMSO
  light to heavy ratio (L/H ratio) of acetylated peptide TKYEK(ac)SLYSMIK (SEQ ID NO: 270): 0.46 log 2
Annexin A6 [314], ANXA6, drug:DMSO
  light to heavy ratio (L/H ratio) of acetylated peptide NDTSGEYK(ac)K (SEQ ID NO: 285): 0.61 log 2
Annexin A6 [478], ANXA6, drug:DMSO
  light to heavy ratio (L/H ratio) of acetylated peptide AINEAYK(ac)EDYHK (SEQ ID NO: 282): 0.59 log 2
Annexin A6 [607], ANXA6, drug:DMSO
  light to heavy ratio (L/H ratio) of acetylated peptide NKPLFFADK(ac)LYK (SEQ ID NO: 298): 0.78 log 2
